In patent US20110257146A1, “Method of Treating Kcnq Related Disorders Using Organozinc Compounds” (The johns Hopkins University, priority 2006, published 2011):

Columns and labels:
N-type calcium channel = target: T1, N-type calcium channel (Homo sapiens, UniProt Q00975); test: Channel activity in N-type calcium channel stable line; format: cell-based
T1 construct: expressed in transfected cells; Diane Lipscombe and David Yue
Procedure: (§1) Cell culture and transient transfection—Chinese Hamster Ovary (CHO) cells were grown in 50/50 DMEM/F12 (Cellgro) with 10% FBS (Gibco), 100 U/ml penicillin (Cellgro), 100 μg/ml streptomycin (Cellgro) and 2 mM L-glutamine (Gibco). At 24 hours before transfection, cells were split and plated in 60 mm dishes and were transfected with Lipofectamine2000™ reagent (Invitrogen) according to the manufacturer's instruction. At 24 hours after transfection, cells were split and re-plated onto coverslips coated with poly-L-lysine (Sigma). Plasmid expressing CD4 cDNA as a marker was cotransfected with the channel cDNAs of hKCNQ1 (from Dr. Michael Sanguinetti), hKCNQ4 (from Dr. Vitya Vardanyan), rKCNQ2, rKCNQ3, and hKCNQ5 (from Drs. David McKinnon, Mark Shapiro, and Thomas Jentsch). Prior to recording, anti-CD4 Dynabeads (Dynal. Biotech. Inc.) were added into the medium to allow for identification of the transfected cells. Stable lines expressing Kv2.1, hERG, and Kv4.2 were generated by standard protocols using pcDNA3.1 and maintained at complete medium supplemented with 500 μg/ml G418. […]
(§2) Electrophysiological Recording—Standard whole-cell recording was used. […] Current and voltage were recorded using an Axopatch-200A amplifier, filtered at 1 kHz and digitized using a DigiData 1322A with pClamp 9.2 software (Axon Instruments, Foster City, Calif.). […]

KCNQ4 = target: T2, KCNQ4 (Homo sapiens, UniProt P56696); test: Whole-cell voltage clamp of CHO cells expressing KCNQ4; format: cell-based; conditions: 10 μM ZnPy, extracellular
T2 construct: expressed in transfected cells; host or cells: CHO cells
Procedure: as §1, §2

M-current = test: Native M-current in isolated dorsal root ganglion neurons; format: cell-based, rat; conditions: 10 μM ZnPy
Procedure: FIG. 10. ZnPy potentiation of native M-current. A. M current recorded from an isolated rat dorsal root ganglion neuron, Vh was −60 mV, stepped to −20 mV, followed by a step to −50 mV, and stepped back to −20 mV. B. Histograms show M-current amplitudes in the presence and absence of 10 μM ZnPy (n=10, * p<0.001). M-current amplitudes were measured by fitting the IM relaxation with an exponential equation. The recording bath solution includes 1 μM TTX, 0.2 mM TEA, 1 mM 4-AP, 50 μM CNQX, and 10 μM bicuculline. C. Membrane potential of an isolated hippocampal neuron was monitored when 10 μM ZnPy was applied in bath solution followed by the addition of 15 μM linopirdine. D. Action potentials elicited by 200 pA current injection to a patched hippocampal neuron. The ZnPy treatments are as indicated.
Neuron Culture—Dorsal root ganglia (DRG) was collected from fourteen-day-old CD rat and incubated in collagenase (sigma, 500 U/ml, 15 min) and then trypsin (Sigma, 1 mg/ml, 30 min) at 37° C. Single DRG neurons were isolated by mechanical trituration with a fire-polished glass Pasteur pipette. […]
as §2

KCNQ2(A306T) = target: T3, KCNQ2(A306T) (Rattus norvegicus, UniProt O88943, A306T); test: Whole-cell recording of KCNQ2(A306T) mutant in CHO cells; format: cell-based
T3 construct: expressed in transfected cells; host or cells: CHO cells
Procedure: FIG. 9. KCNQ2 point mutants selectively lose ZnPy sensitivity. […] Each mutation site was indicated based on the predicted transmembrane regions. Dashed line indicates the potentiation level of wt KCNQ2 channel in the absence of ZnPy. […] C. Modeling of the S5-pore-S6 region of KCNQ2.
FIG. 11. ZnPy effects on BFNC mutant channels expressed in CHO cells. A. whole-cell currents of KCNQ2(R207W), KCNQ2(Y284C), and KCNQ2(A306T) were recorded in the absence (left) and presence (right) of 10 μM ZnPy, Vh was −80 mV, in 10 mV voltage steps from −70 mV to +50 mV. B. a histogram plotting potentiation effects on KCNQ2 wild type (wt) and BFNC mutants (R207W, Y284C and […]) by ZnPy (filled box) and retigabine (open box) (n≧4, * p<0.001, ** p<0.05).
Mutagenesis—Starting from KCNQ cDNAs, the KCNQ2 point mutants were constructed by recombinant PCR and verified by sequencing.
Electrophysiological Recording—Standard whole-cell recording was used. Pipettes were pulled from borosilicate glass capillaries (TW150-4, World Precision Instruments, Sarasota, Fla.). When filled with the intracellular solution, the pipettes have resistances of […]. During the recording, constant perfusion of extracellular solution was maintained using a BPS perfusion system (ALA, Westbury, N.Y.). Pipette solution contained (mM): KCl 145, MgCl2 1, EGTA 5, HEPES 10, MgATP 5 (pH 7.3); extracellular solution contained (mM): NaCl 140, KCl 3, CaCl2 2, MgCl2 1.5, HEPES 10, glucose 10 (pH 7.4). Current and voltage were recorded using an Axopatch-200A amplifier, filtered at 1 kHz and digitized using a DigiData 1322A with pClamp 9.2 software (Axon Instruments, Foster City, Calif.). Series resistance compensation was also used and set to 60-80%.

T1 sequence (Q00975 whole entry): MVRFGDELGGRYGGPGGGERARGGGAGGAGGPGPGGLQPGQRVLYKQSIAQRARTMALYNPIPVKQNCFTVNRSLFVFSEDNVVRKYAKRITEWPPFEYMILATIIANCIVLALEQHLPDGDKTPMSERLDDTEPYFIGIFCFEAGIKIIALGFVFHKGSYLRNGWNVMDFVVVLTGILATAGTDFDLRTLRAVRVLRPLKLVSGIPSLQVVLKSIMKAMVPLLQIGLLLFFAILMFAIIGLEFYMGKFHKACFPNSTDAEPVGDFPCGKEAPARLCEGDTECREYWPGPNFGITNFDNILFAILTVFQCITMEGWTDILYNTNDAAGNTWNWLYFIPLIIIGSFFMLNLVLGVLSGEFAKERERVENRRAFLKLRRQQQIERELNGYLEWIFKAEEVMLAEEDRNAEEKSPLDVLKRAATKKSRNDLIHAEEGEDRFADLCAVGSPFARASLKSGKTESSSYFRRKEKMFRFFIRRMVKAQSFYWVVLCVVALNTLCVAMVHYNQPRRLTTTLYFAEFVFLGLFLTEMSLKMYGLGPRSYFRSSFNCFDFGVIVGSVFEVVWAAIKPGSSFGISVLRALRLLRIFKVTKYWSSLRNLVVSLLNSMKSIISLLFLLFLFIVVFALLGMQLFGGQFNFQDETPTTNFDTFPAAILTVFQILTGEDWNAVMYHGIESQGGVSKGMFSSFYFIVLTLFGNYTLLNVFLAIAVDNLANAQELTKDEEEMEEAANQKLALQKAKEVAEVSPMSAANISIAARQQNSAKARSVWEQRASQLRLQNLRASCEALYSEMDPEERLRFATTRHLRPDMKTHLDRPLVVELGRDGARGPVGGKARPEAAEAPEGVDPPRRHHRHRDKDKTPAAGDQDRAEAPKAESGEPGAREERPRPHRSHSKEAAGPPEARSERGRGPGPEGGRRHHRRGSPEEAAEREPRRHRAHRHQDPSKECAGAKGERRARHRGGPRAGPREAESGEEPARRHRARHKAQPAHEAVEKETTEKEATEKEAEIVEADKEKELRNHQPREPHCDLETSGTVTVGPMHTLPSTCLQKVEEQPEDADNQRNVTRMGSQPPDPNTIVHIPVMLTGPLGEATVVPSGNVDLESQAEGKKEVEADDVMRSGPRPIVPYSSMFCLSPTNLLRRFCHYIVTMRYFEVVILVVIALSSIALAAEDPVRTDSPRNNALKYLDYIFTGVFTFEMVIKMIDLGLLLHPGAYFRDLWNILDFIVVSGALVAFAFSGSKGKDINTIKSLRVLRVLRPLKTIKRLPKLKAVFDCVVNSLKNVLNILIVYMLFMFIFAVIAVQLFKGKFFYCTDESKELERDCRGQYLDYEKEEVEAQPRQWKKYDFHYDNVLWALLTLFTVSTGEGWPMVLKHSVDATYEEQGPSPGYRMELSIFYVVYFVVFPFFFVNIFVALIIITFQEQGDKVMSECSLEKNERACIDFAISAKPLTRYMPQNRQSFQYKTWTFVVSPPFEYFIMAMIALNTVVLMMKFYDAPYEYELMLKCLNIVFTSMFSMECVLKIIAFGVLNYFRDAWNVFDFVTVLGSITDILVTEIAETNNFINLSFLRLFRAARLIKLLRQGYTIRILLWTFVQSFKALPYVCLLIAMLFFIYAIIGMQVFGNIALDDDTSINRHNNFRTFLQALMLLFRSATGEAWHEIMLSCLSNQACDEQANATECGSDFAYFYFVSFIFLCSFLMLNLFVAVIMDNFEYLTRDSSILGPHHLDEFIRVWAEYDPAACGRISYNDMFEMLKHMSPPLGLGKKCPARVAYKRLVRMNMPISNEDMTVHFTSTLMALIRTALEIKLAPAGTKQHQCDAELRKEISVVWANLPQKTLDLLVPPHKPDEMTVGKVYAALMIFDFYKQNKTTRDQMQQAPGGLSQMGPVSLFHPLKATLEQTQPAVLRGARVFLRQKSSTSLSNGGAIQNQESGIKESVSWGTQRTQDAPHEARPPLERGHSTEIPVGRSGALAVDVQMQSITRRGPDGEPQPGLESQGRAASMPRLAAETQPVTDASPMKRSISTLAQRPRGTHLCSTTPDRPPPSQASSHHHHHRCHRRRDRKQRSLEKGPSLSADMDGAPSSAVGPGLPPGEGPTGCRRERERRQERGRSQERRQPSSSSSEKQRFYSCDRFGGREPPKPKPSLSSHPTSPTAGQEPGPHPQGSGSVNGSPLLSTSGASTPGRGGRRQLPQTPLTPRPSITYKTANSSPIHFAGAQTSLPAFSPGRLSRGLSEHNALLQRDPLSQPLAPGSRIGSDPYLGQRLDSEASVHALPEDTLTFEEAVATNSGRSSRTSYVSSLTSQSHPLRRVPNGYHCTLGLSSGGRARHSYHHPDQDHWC
T1 sequence (P54284 whole entry partner): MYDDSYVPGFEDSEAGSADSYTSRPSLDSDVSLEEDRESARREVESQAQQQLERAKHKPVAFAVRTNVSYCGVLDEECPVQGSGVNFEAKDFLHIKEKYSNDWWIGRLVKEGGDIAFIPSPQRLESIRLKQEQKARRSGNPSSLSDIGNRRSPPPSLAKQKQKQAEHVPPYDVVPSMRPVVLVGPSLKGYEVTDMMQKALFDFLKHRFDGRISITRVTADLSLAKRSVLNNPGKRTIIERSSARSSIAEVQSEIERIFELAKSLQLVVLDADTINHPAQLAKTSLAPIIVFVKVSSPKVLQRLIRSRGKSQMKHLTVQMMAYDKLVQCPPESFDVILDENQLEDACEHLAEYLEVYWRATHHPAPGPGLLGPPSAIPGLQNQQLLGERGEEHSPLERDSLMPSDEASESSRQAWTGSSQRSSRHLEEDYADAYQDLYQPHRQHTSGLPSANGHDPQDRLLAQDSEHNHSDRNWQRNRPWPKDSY
T1 sequence (P54289 25-946 partner limits assumed): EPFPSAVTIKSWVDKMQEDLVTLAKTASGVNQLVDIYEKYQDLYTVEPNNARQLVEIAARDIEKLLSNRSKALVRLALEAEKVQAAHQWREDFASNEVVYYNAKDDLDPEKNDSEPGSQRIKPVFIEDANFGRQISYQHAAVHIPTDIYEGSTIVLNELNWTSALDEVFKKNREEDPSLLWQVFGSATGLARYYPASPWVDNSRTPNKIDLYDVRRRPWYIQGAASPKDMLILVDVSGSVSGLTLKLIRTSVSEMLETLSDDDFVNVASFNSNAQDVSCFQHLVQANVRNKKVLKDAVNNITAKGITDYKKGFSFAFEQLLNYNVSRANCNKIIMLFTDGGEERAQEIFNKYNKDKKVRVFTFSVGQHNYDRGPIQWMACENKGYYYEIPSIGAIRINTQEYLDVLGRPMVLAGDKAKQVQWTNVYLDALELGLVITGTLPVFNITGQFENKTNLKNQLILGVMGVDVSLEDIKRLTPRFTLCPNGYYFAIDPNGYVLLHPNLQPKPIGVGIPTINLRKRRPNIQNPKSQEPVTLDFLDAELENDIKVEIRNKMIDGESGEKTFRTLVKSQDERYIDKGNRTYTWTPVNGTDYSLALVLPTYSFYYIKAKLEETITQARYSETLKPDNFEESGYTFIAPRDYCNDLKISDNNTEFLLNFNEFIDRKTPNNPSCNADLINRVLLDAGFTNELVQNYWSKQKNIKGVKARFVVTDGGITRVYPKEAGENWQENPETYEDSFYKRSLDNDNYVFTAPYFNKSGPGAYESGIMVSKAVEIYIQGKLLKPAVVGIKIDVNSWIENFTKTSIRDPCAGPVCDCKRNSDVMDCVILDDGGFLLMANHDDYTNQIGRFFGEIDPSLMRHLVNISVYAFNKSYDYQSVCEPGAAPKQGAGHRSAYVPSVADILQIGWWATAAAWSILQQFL
T1 sequence (P54289 947-1103 partner limits assumed): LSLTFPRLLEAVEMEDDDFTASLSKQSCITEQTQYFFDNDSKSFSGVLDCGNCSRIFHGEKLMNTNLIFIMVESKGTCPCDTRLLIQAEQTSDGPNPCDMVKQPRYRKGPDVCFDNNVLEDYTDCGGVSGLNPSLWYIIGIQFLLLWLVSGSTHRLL

Structure (SMILES): S=c1ccccn1[O][Zn][O]n1ccccc1=S [ZnPy, Zinc Pyrithione]
- potentiation of channel activity (N-type calcium channel): did not potentiate
- effect on channel activity (KCNQ4): potentiated
- potentiation of M-current amplitude (M-current): 1.9 fold
- effectiveness of current increase (KCNQ2(A306T); 10 μM ZnPy): less effective
- hyperpolarizing shift of V1/2 (KCNQ2(A306T); ZnPy): 24.1±3.1 mV
- potentiation in Gmax (KCNQ2(A306T); ZnPy): little potentiation in Gmax
